Reference: patent US20130195926A1, “MODULATION OF NITRIC OXIDE SIGNALING TO NORMALIZE TUMOR VASCULATURE” (The General Hospital Corporation, priority 2007, published 2013)

How the values were obtained:
nNOS = assay: Western blot of nNOS knockdown in cultured nNOS shRNA-transfected U87 cells; type: cell-based, human
Procedure: U87MG (American Type Culture Collection HTB-14) and GL261 (generous gift from Dr. G. Yancey Gillespie at University of Alabama) tumor cells were cultured in Dulbecco's Modified Eagle's Medium with 10% fetal bovine serum at 37° C. in a humidified 5% CO2 incubator. The following short-hairpin RNAs (shRNAs) for nNOS were designed using a commercial service program for small interfering RNA (siRNA) target finder (http://www.ambion.com/techlib/misc/siRNA_finder.html): nNOS-shRNA58, CAAAGAGATCGACACCATC (sense), […] (antisense); nNOSshRNA97, CACGCATGTCTGGAAAGGC (sense), […](antisense); nNOS-shRNA150, GGTCTATCCAATGTCCACA (sense), […] (antisense). The DNA oligonucleotides consist of a 19-nucleotide sense siRNA sequence linked to its reverse complementary antisense siRNA sequence by a short spacer (TTCAAGAGA).
Each DNA oligonucleotide was prepared with nucleotide overhangs with BamHI and HindIII restriction sites added to the 5′ and 3′ end of the DNA oligonucleotides and subcloned into the pSilencer 3.1 H-1-hygro (Ambion) that allows transcription of the shRNA. These expression vectors were stably transfected into U87MG cells using LipofectAMINE 2000 (Invitrogen) following the manufacturer's instruction.
The stably transfected cells were selected with 80 μg/ml of hygromycin B. The expression of nNOS protein in U87 tumor cells and tissues was determined by'Western blot analysis. […]
Equal amounts of 60 micrograms of protein per sample were separated on 7.5% SDS polyacrylamide gels, transferred onto polyvinylidene fluoride membrane (Millipore), incubated with primary antibodies followed by secondary antibodies (the same antibodies used in immunohistochemistry studies. See Immunohistochemistry methods below), and detected using enhanced chemiluminescence (GE Healthcare) by exposure on autoradiography films (Kodak) (Xu, L., et al. 2005 Cancer Res. 65, 5711-5719; Canneliet, P., et al. 1998 Nature 394, 485-490; Xu, L., et al. 2002 Journal of Biological Chemistry 277, 11368-11374 (2002); and Xu, L., et al. 2004 Clinical Cancer Research 10, 701-707). […]

HIF-1α = assay: Western blot of HIF-1α expression in U87 tumors; type: in vivo; conditions: for HIF-1α protein levels, % of that in U87MG tumors: Western blot; for hypoxia inducible factor-1α (HIF-1α) protein levels: compared to U87MG tumors
Procedure: FIGS. 9A-E show the effect of nNOS silencing in U87 gliomas on tumor tissue oxygenation. Tissues shown in (A) were harvested and stained after injection of pimonidazole (60 mg/kg), followed by biotinylated lectin. Confocal laser scanning microscopy images (top row) of Hypoxyprobe™-1 adducts stained hypoxic cells (red), lectin-bound perfused blood vessels (green) and nuclei (blue) in U87MG, U87-shRNA58, and […] are 630 μm across. Binarized images (bottom row) of above confocal images. Bar indicates 100 μm. (B-C) Quantification of vessel segments (B) and vessel perimeter (C). (D) Quantification of hypoxic area. n=7, 3, 4 respectively. *p<0.05, as compared to U87MG tumors. (E) Western blot analysis of HIF-1α expression in U87MG and nNOS-snRNA-transfected U87 tumors. HIF-1α protein levels in U87-shRNA58 and U87-shRNA150 tumors were 46% and 59% of that in U87MG tumors, respectively. FIGS. 10A-C show the effect of nNOS silencing in U87 gliomas on fractionated radiation therapy. (A) Tumor growth normalized to day 0 tumor volume. (B) Tumor growth delay evaluated at the levels of 2, 4, and 6 times Vo. *P<0.05 as compared to U87MG. (C) Kaplan-Meier survival plot. U87 control (n=9), sh58 control (n=7), sh150 control (n=9), U87 radiation (n=8), sh58 radiation (n=6), sh150 radiation (n=10). FIGS. 11A-D show in vitro radiosensitivity and post-radiation tumor vasculature in U87 tumors. (A) Intrinsic tumor cell radiosensitivity was evaluated with the clonogenic assay. Following irradiation, the cells were incubated 9-13 d for colony formation depending on the dose administered. The surviving fractions were corrected for initial and final multiplicities determined 4-6 h after plating and at the time of irradiation. Data are expressed as mean±s.d. (B-D) When U87MG and nNOS-silenced U87 tumors grown in the hindleg in Rag-1^−/− mice reached ˜100 mm^3 they received 8 Gy/d for 3 d. […] (C-D) Quantification of the number of vessel segments (C) and vessel perimeter (D). […]
Equal amounts of 60 micrograms of protein per sample were separated on 7.5% SDS polyacrylamide gels, transferred onto polyvinylidene fluoride membrane (Millipore), incubated with primary antibodies followed by secondary antibodies (the same antibodies used in immunohistochemistry studies. See Immunohistochemistry methods below), and detected using enhanced chemiluminescence (GE Healthcare) by exposure on autoradiography films (Kodak) (Xu, L., et al. 2005 Cancer Res. 65, 5711-5719; Canneliet, P., et al. 1998 Nature 394, 485-490; Xu, L., et al. 2002 Journal of Biological Chemistry 277, 11368-11374 (2002); and Xu, L., et al. 2004 Clinical Cancer Research 10, 701-707).
The extent of hypoxia was determined in U87MG, U87-shRNA58, and U87-shRNA150 tumors utilizing a redox marker pimonidazole (Hypoxyprobe™-1 Kit, Millipore). […]

Substance | Knockdown efficiency of nNOS in vitro (nNOS) [%] | HIF-1α protein levels, % of that in U87MG tumors (HIF-1α) [%] | hypoxia inducible factor-1α (HIF-1α) protein levels (HIF-1α)
shRNA150: short-hairpin RNA for nNOS, GGTCTATCCAATGTCCACA (sense), TGTGGACATTGGATAGACCTT (antisense), in pSilencer 3.1 H-1-hygro | 99 | 59 | reduction
shRNA58: short-hairpin RNA for nNOS, CAAAGAGATCGACACCATC (sense), GATGGTGTCGATCTCTTTGTT (antisense), in pSilencer 3.1 H-1-hygro, stably transfected into U87MG | 99 | 46 | reduction
